Patent publication US20200352976A1, “HYPOMETHYLATING AGENTS FOR USE IN TREATMENT OF CANCER” (Otsuka Pharmaceutical Co., Ltd, priority 2019, published 2020)
Several values for one entry are separate records, joined by “and”; a condition that tells them apart may be missing. Identical values can stand only once.

Key:
[1] = system: treatment naïve acute myeloid leukemia (TN-AML); test: Phase 3 randomized trial Compound I-1 vs treatment choice: CR, OS, PFS, EFS, subgroup analyses; assay type: in vivo, human; conditions: for EFS HR (95% CI) / PFS HR (95% CI): Compound I-1/TC
Protocol: A Phase 3 randomized trial comparing Compound I-1 to a treatment choice of azacitidine, decitabine, or Low Dose Ara-C(LDAC) in patients with AML was performed.
The patients were randomized 1:1 to either Compound I-1 (60 mg/m^2/d subcutaneous injection for 5 days of a 28-day cycle), or a preselected treatment choice of azacitidine, decitabine, or LDAC at standard doses. AML diagnosis and response status were assessed by an independent blinded central pathologist. CR and OS were the co-primary endpoints.
Compound I-1 powder was reconstituted at a concentration of 100 mg/mL and administered subcutaneously (SC) at a dose of 60 mg/m^2 daily on days 1-5 of a 28-day cycle.
LDAC was given at a dose of 20 mg SC twice daily (BID) on days 1-10 of a 28-day cycle. Decitabine was given at a dose of 20 mg/m^2 as a 1-hour intravenous (IV) infusion on days 1-5 of a 28-day cycle. Azacitidine was given IV or SC daily on days 1-7 of a 28-day cycle at a dose of 75 mg/m^2. Other TC treatment parameters such as dose adjustment guidelines followed locally approved prescribing information and institutional standard practice.
(§1) Two co-primary endpoints were used: complete response (CR) rate based on modified International Working Group (IWG) 2003 AML Response Criteria and OS (the number of days from randomization to death). Secondary endpoints included CRc (CR+CR with incomplete blood count recovery [CRi]+CR with incomplete platelet recovery [CRp]) rate, number of days alive and out of the hospital (NDAOH), progression-free survival (PFS), health related quality of life (QOL) by EQ-5D (consisting of the EQ-5D-5L descriptive system and the EQ Visual Analogue Scale [EQ VAS]), duration of CR (the time from first CR to time of relapse), incidence and severity of adverse events (AEs), and 30- and 60-day all-cause mortality.
CR rate was compared between Compound I-1 and TC groups using Cochran Mantel-Haenszel test at an alpha of 0.04, stratified by the stratification factors used at randomization. OS curves were estimated using Kaplan-Meier (K-M) method and formally compared between Compound I-1 and TC groups using a 2-sided stratified log-rank test, stratified by the same stratification factors used at randomization. Sensitivity analyses were conducted for CR rate and OS to evaluate the robustness of the treatment effect.
CRc rate was compared between treatment groups using a Cochran Mantel-Haenszel test with the same stratification variable as for CR and OS. NDAOH was compared between treatment groups using an analysis of variance model (ANOVA) with stratification variables used as fixed factors. PFS was compared between treatment groups using a stratified log-rank test.
The number of RBC and platelet transfusions up to Day 180 were summarized descriptively. 95% CI of the mean was also provided. The EQ-5D-5L index values and EQ VAS up to Day 180 were analyzed descriptively and using a mixed model approach for repeated measures.
Data obtained during the trial of EXAMPLE 4 were further analyzed for selected subgroups of patients including patients who achieved CR in patients who received at least 4 or 6 treatment cycles.
TN-AML patients ineligible for intensive chemotherapy (IC) due to age ≥75 y, coexisting morbidities, or ECOG PS 2-3 were randomized 1:1 to either Compound I-1 (60 mg/m^2/d SC for 5-days Q28 days) or a preselected treatment choice (TC) of azacitidine (AZA), decitabine (DEC), or low-dose Ara-C(LDAC) at the prescribed dosing schedule. AML diagnosis and response status were assessed by an independent central pathologist blinded to randomization assignment. Complete response (CR) and overall survival (OS) were the co-primary endpoints. The patients' characteristics, number of treatment cycles, reasons for treatment discontinuation, CR, and OS including analyses by number of cycles received including prospective subgroups, and OS analyses of responders and non-responders were analyzed. […]

[2] = Phase 3 trial safety: adverse events, ECG, mortality; assay type: in vivo
Source text: as §1
The incidence and severity of adverse events (AEs) and 30- and 60-day all-cause mortality were summarized with descriptive statistics. No formal statistical testing between the treatment groups was planned for safety assessments.

[3] = number of days alive and out of the hospital
[4] = patients with at least 4 cycles
[5] = patients with at least 4 cycles (n = 476)
[6] = patients with at least 6 cycles
[7] = patients with at least 6 cycles (n = 375)

Nc1ncn([C@H]2CC(OP(=O)(O)OC[C@H]3O[C@@H](n4cnc5c(=O)[nH]c(N)nc54)CC3O)[C@@H](CO)O2)c(=O)n1 (stereo partly drawn) [Compound I-1]
CR odds ratio (logistic regression) ([1]; Compound I-1 vs TC): 1.14 | CR rate Treatment Difference ([1]; Compound I-1 vs TC): 1.92% | CRc rate Treatment Difference ([1]; Compound I-1 vs TC): 0.39 | NDAOH LS Mean Treatment Difference ([1]; Compound I-1 vs TC): −7.8 | Overall survival hazard ratio ([1]; Compound I-1 vs each treatment choice): less than 1 | 12-month survival rate ([1]; ITT): 37% | 24-month survival rate ([1]; ITT): 18% | Median PFS ([1]; ITT): 5.3 months | Overall Survival K-M Estimate, 25th percentile ([1]; ITT): 71.0 days | Overall Survival K-M Estimate, 75th percentile ([1]; ITT): 584.0 days | Overall Survival K-M Estimate, Median ([1]; ITT): 213 days and 213.0 days | PFS K-M Estimate, Median ([1]; ITT): 159 days | Survival, 75th percentile ([1]; ITT): 19.5 months | Median EFS ([1]; ITT Population (n = 815)): 5.1 months | Median OS ([1]; ITT Population (n = 815)): 7.1 months | EFS HR (95% CI) ([1]; ITT Population): 0.85 (0.74-0.98), p 0.02 | PFS HR ([1]; ITT, Compound I-1 vs TC): 0.99 (0.86-1.15), p 0.93 | 12-month survival rate ([1]; ITT, as fraction): 0.37 | 24-month survival rate ([1]; ITT, as fraction): 0.18 | CRc (CR + CRi + CRp) ([1]; ITT, N = 408 / 407): 93 subjects | Complete Response (CR) ([1]; ITT, N = 408 Compound I-1, N = 407 TC): 79 subjects | Overall survival hazard ratio ([1]; baseline TP53 mutations (94 patients), Compound I-1 vs treatment choice): 1.8 | Median duration of CR ([1]; complete responders): 7.2 months | EQ VAS LS mean change from baseline ([1]; first 6 months): 0.87 | Platelet transfusions, mean ([1]; first 6 months): 12.5 units | RBC transfusions, mean ([1]; first 6 months): 16.2 units | Index EQ-5D-5L score LS mean difference ([1]; first 6 months, Compound I-1 vs TC): −0.019 | Mean NDAOH over 6 months ([1]; in vivo): 3.3 months | NDAOH per patient-year rate ([1]; in vivo): 297 days | One-year survival rate ([1]; landmark analysis (approximately 4 months), at least 4 cycles): 51% | Overall survival hazard ratio ([1]; landmark analysis, greater than 3 treatment cycles, Compound I-1 vs TC): 0.78 | Treatment Discontinuation Before 4 Cycles: Progressive Disease ([1]; n = 408 I-1, n = 407 TC): 7.6% | Treatment Discontinuation Before 6 Cycles: Progressive Disease ([1]; n = 408 I-1, n = 407 TC): 10.8% | OS HR ([1]; non-responders, at least 6 cycles, Compound I-1 vs TC): 0.73 | NDAOH in First 6 Months, LS Mean [1, 3]: 98.9 | NDAOH in First 6 Months, Mean [1, 3]: 98.1 | Median EFS ([1]; patients who achieved an objective response (CR, CRp, CRi, or PR)): 17.4 m | EFS HR ([1]; patients who achieved an objective response, Compound I-1 vs TC): 0.68 | Median OS [1, 4]: 15.6 months | CR Rate ([1]; patients with at least 4 cycles (n = 235 I-1; n = 241 TC)): 33.6% | Median EFS [1, 5]: 12.1 months | Median PFS [1, 5]: 10.3 months | EFS HR (95% CI) [1, 4]: 0.74 (0.61-0.9), p 0.002 | PFS HR (95% CI) [1, 4]: 0.88 (0.73-1.06), p 0.17 | OS HR (95% CI) ([1]; patients with at least 4 cycles, Compound I-1 vs TC): 0.78 (0.64, 0.96), p 0.02 and 0.78 (0.64-0.96), p 0.02 | Median OS [1, 6]: 19.5 months | CR Rate ([1]; patients with at least 6 cycles (n = 187 I-1; n = 188 TC)): 40.1% | Median EFS [1, 7]: 14.9 months | Median PFS [1, 7]: 11.9 months | EFS HR (95% CI) [1, 6]: 0.69 (0.56-0.86), p 0.001 | PFS HR (95% CI) [1, 6]: 0.86 (0.7-1.07), p 0.17 | OS HR (95% CI) ([1]; patients with at least 6 cycles, Compound I-1 vs TC): 0.69 (0.54, 0.88), p 0.002 and 0.69 (0.54-0.88), p 0.002 | OS HR ([1]; responders (CR, CRp, CRi, or PR), at least 6 cycles, Compound I-1 vs TC): 0.66 | OS HR ([1]; subjects who achieved any CR (CR, CRp, or CRi), Compound I-1 vs TC, post hoc): 0.72 | Overall survival hazard ratio ([1]; without TP53 mutations (696 patients), Compound I-1 vs treatment choice): 0.86 | Related AE with an outcome of death, each of: hematophagy histiocytosis, small intestinal hemorrhage, general physical health deterioration, mucormycosis, osteonecrosis ([2]; 1 subject each): 0.2% | Discontinuations due to a related AE that was an infection event ([2]; human, in vivo): 7 subjects | Dose reductions due to AEs ([2]; human, in vivo): 6.0% | Related SAE anemia ([2]; human, in vivo): 1.0% | Related SAE febrile neutropenia ([2]; human, in vivo): 13.7% | Related SAE pneumonia ([2]; human, in vivo): 8.5% | Related SAE sepsis ([2]; human, in vivo): 4.0% | Related SAE septic shock ([2]; human, in vivo): 1.2% | Related SAE thrombocytopenia ([2]; human, in vivo): 1.7% | SAE febrile neutropenia incidence ([2]; human, in vivo): 25.2% | SAE pneumonia incidence ([2]; human, in vivo): 28.4% | SAE sepsis incidence ([2]; human, in vivo): 15.0% | Treatment Discontinuation Before 4 Cycles: Adverse Event ([2]; human, in vivo): 6.4% | Treatment Discontinuation Before 6 Cycles: Adverse Event ([2]; human, in vivo): 7.4% | Treatment delays due to adverse events ([2]; human, in vivo): 48.1% | AE with an outcome of death: febrile neutropenia ([2]; human, in vivo, 60 mg/m^2): 0.2% | AE with an outcome of death: pneumonia ([2]; human, in vivo, 60 mg/m^2): 5.0% | AE with an outcome of death: sepsis ([2]; human, in vivo, 60 mg/m^2): 6.5% | AE with an outcome of death: septic shock ([2]; human, in vivo, 60 mg/m^2): 2.0% | Related AE with an outcome of death: febrile neutropenia ([2]; human, in vivo, 60 mg/m^2): 0.2% | Thirty-day all-cause mortality ([2]; human, in vivo, 60 mg/m^2, 30 day): 11.2% | 60-day mortality ([2]; human, in vivo, 60 mg/m^2, 60 day): 20.9% | Effect on heart rate (ECG) ([2]; in vivo): no effect on heart rate | Effects on ECG parameters ([2]; in vivo): No effects on ECG parameters were observed | Treatment Discontinuation Before 4 Cycles: Death ([2]; n = 408 I-1, n = 407 TC): 17.6% | Treatment Discontinuation Before 6 Cycles: Death ([2]; n = 408 I-1, n = 407 TC): 22.5%
